Measured values published in US5436246A, “Serotonin receptor agents” (priority 1993, dated 1995).
Structures can show the parent of a compound that is named as a salt. Where two headings read alike, the source gives them in different places.

Key:
5HT1D receptor = biological target: T1, 5HT1D receptor (Bos taurus, UniProt F1MGM3); test: 5HT1D receptor binding affinity (procedure of Peroutka et al.)
T1 construct: from tissue
Description: The compounds affinity for the 5HT1D site was determined by the binding procedure of Peroutka et al as reported in European Journal of Pharmacology, Vol. 163 at pages 133-166 (1989). […] Where multiple determinations of the binding affinity have been performed, the average is given followed by the number of determinations in parentheses.

5HT1A receptor = biological target: T2, 5HT1A receptor (Rattus norvegicus, UniProt P19327); test: 5HT1A receptor binding affinity (procedure of Gozlan et al.)
T2 sequence (P19327 1-422): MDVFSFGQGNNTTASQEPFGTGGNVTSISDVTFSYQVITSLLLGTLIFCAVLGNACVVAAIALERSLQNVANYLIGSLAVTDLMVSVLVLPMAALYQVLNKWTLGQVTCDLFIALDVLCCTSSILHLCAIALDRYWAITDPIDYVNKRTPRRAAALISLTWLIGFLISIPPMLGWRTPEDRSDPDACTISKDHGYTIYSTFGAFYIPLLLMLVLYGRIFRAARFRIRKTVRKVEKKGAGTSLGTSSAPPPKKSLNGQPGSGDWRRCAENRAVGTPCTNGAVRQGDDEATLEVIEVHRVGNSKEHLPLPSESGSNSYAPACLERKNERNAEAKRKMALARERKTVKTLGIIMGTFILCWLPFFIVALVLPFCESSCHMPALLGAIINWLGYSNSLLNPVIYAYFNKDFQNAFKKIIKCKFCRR
Description: In the following examples, the compounds binding affinity for both the 5HT1A receptor and 5HT1D receptors is reported. The compounds affinity for the 5HT1D site was determined by the binding procedure of Peroutka et al as reported in European Journal of Pharmacology, Vol. 163 at pages 133-166 (1989). The compounds affinity for the 5HT1A receptor was determined by the procedure of Gozlan et al., as reported in Nature, Volume 305, at pages 140-142 (1983). Where multiple determinations of the binding affinity have been performed, the average is given followed by the number of determinations in parentheses. Also, the PA2 value for the saphenous vein preparation as described in this application is given, followed by the intrinsic (agonist) activity in parentheses, expressed as a percentage. [drawing 10] […]

[1] = average of multiple determinations where number in parentheses is given, read-out: IC50 (5HT1D Binding Affinity)
[2] = average of multiple determinations where number in parentheses is given, read-out: IC50 (5HT1A Binding Affinity)

T1 sequence (F1MGM3 1-403): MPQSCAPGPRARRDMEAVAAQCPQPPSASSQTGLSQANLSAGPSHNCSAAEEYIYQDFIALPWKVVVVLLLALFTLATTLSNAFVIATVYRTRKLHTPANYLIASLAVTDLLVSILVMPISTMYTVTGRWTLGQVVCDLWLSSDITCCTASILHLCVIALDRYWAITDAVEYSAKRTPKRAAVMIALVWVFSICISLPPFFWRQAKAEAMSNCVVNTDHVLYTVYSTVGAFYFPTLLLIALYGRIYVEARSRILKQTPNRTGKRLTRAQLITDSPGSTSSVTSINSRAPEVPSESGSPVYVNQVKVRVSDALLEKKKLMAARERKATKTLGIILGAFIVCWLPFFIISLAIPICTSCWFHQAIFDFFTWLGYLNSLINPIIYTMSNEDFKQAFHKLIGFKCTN

| IC50 (5HT1D receptor; [1]) [nM] | IC50 (5HT1A receptor; [2]) [nM] | SMILES | IC50 (5HT1D receptor) [nM] | IC50 (5HT1A receptor) [nM] |
| --- | --- | --- | --- | --- |
| > 1000 | > 1000 | CCOC(=O)c1cc2c(N3CCN(Cc4ccccc4)CC3)cccc2s1 [Example 1, ethyl-4-[4-(phenylmethyl)-1-piperazinyl]benzo[b]thiophene-2-carboxylate monohydrochloride] |  |  |
| 760 | 35 | OCc1cc2c(N3CCN(Cc4ccccc4)CC3)cccc2s1 [Example 2, 4-[4-(phenylmethyl)-1-piperazinyl]-benzo[b]thiophene-2-methanol monohydrochloride] |  |  |
| > 1000 | 180 | N#Cc1cc2c(N3CCN(Cc4ccccc4)CC3)cccc2s1 [Example 3, 4-[4-(phenylmethyl)-1-piperazinyl]-benzo[b]thiophene-2-nitrile monohydrochloride] |  |  |
| 52 | 1.6 | NC(=O)c1cc2c(N3CCN(Cc4ccccc4)CC3)cccc2s1 [Example 4, 4-[4-(phenylmethyl)-1-piperazinyl]-benzo[b]thiophene-2-carboxamide monohydrochloride] |  |  |
|  |  | CCOC(=O)c1cc2c(N3CCNCC3)cccc2s1 [Example 5, ethyl 4-(1-piperazinyl)-benzo[b]thiophene-2-carboxylate monohydrochloride] | 47 | 89 |
| 108 | 37 | CCOC(=O)c1cc2c(N3CCN(CCc4ccccc4)CC3)cccc2s1 [Example 6, ethyl-4-[4-(2-phenylethyl)-1-piperazinyl]-benzo[b]thiophene-2-carboxylate monohydrochloride] |  |  |
|  |  | N#Cc1cc2c(N3CCN(CCc4ccccc4)CC3)cccc2s1 [Example 8, 4-[4-(2-phenylethy-1-piperazinyl]-benzo[b]thiophene-2-nitrilemonohydrochloride] | 18 | 4 |
| 551 | 239 | CCOC(=O)c1cc2c(N3CCN(CCCc4ccccc4)CC3)cccc2s1 [Example 14, ethyl-4-[4-(3-phenylpropyl)-1-piperazinyl]-benzo[b]thiophene-2-carboxylatemonohydrochloride] |  |  |
| 173 | 21 | N#Cc1cc2c(N3CCN(CCCc4ccccc4)CC3)cccc2s1 [Example 16, 4-[4-(3-phenylpropyl)-1-piperazinyl]-benzo[b]thiophene-2-nitrile monohydrochloride] |  |  |
|  |  | OCc1cc2c(N3CCN(CCc4ccc(Cl)cc4)CC3)cccc2s1 [Example 19, 4-[4-[2-(4-chlorophenyl)ethyl]-1-piperazinyl]-benzo[b]thiophene-2-methanolmonohydrochloride] | 10 | 2 |
|  |  | OCc1cc2c(N3CCN(CCc4ccc(F)cc4)CC3)cccc2s1 [Example 23, 4-[4-[2-(4-fluorophenyl)ethyl]-1-piperazinyl]-benzo[b]thiophene-2-methanolmonohydrochloride] | 3 | 3 |
|  |  | NC(=O)c1cc2c(N3CCN(CCc4ccc(F)cc4)CC3)cccc2s1 [Example 25, 4-[4-[2-(4-fluorophenyl)ethyl]-piperazinyl]-benzo[b]-thiophene-2-carboxamide monohydrochloride] | 6 | 0.8 |
|  |  | Cc1ccc(CCN2CCN(c3cccc4sc(CO)cc34)CC2)cc1 [Example 27, 4-[4-[2-(4-methylphenyl)-ethyl]-1-piperazinyl]-benzo[b]thiophene-2-methanol monohydrochloride] | 1 | 3 |
|  |  | Cc1ccc(CCN2CCN(c3cccc4sc(C#N)cc34)CC2)cc1 [Example 28, 4-[4-[2-(4-methylphenyl)ethyl]-1-piperazinyl]-benzo[b]thiophene-2-nitrile monohydrochloride] | 56 | 4 |
| 73 | 74 | CCOC(=O)c1cc2c(N3CCN(CCc4ccc(OC)cc4)CC3)cccc2s1 [Example 30, ethyl-4-[4-[2-(4-methoxyphenyl)ethyl]-1-pierazinyl]-benzo-[b]thiophene-2-carboxylate monohydrochloride] |  |  |
|  |  | COc1ccc(CCN2CCN(c3cccc4sc(CO)cc34)CC2)cc1 [Example 31, 4-[4-[2-(4-methoxyphenyl)ethyl]-1-piperazinyl]-benzo[b]thiophene-2-methanol monohydrochloride] | 2 | 1 |
|  |  | Cc1c(CO)sc2cccc(N3CCN(CCc4ccccc4)CC3)c12 [Example 33, 4-[4-(2,phenylethyl)-1-piperazinyl]-benzo[b]-thiophene-3-methyl-2-methanol monhydrochloride 0.5 hydrate] | 31 | 9 |
| 66 | 34 | CCCN1CCN(c2cccc3sc(CO)cc23)CC1 [Example 35, 4-[(4-propyl)-1-piperazinyl]benzo[b]thiophene-2-methanol hydrochloride] |  |  |
|  |  | CN1CCN(c2cccc3sc(CO)cc23)CC1 [Example 39, 4-[4-methyl-1-piperazinyl]-benzo[b]thiophene-2-methanol hydrochloride] | 16 |  |
|  |  | CC(O)c1cc2c(N3CCN(CCc4ccccc4)CC3)cccc2s1 (stereo not drawn) [Example 43, 1-[4-(4-phenethyl-piperazin-1-yl)-benzo[b]thiophen-2-yl]ethanol hydrochloride] | 3 | 0.5 |
|  |  | COCc1cc2c(N3CCNCC3)cccc2s1 [Example 45, 4-(1-piperazinyl)-benzo[b]thiophene-2-methoxymethyl hydrochloride hemihydrate] | 4 |  |
|  |  | CNC(=O)c1cc2c(N3CCNCC3)cccc2s1 [Example 49, 4-(1-piperazinyl)benzol[b]-thiophene-2-(N-methyl)carboxamide dihydrochloride hydrate] | 8.4 |  |
| 6 | 1 | O=[N+]([O-])c1ccc(CCN2CCN(c3cccc4sc(CO)cc34)CC2)cc1 [Example 50, 4-[4-[2-(4-nitrophenyl)ethyl]-1-piperazinyl]-benzo[b]thiophene-2-methanol hydrochloride] |  |  |
|  |  | NCc1cc2c(N3CCN(CCc4ccccc4)CC3)cccc2s1 [Example 55, 4-[4-(2-phenylethyl)-1-piperazinyl]-benzo[b]thiophene-2-methanamine dihydrochloride] | 12 | 3 |
